Experimental data as given in article PMC10095950, “Development of Cell Permeable NanoBRET Probes for the Measurement of PLK1 Target Engagement in Live Cells” (Molecules, 2023).
Read-outs that look alike come from different tables or passages of the source.

How the values were obtained:
[1] = system: a range of cancer cell lines; parameters: method as in as in column Ref. of Table 1 ([5]-[8],[14],[19]-[21]); settings: ref as in Table 1 ([5]-[8],[14],[19]-[21]), read-out: Reported Cell Proliferation IC50; cited from earlier work
PLK1 = settings: ref as in Table 1 ([5],[6],[8],[14],[19],[20],[21]); read-out: Reported Enzyme Inhibition IC50 PLK1; cited from earlier work
human PLK2 (NLuc-PLK2) = biological target: T1, human PLK2 (NLuc-PLK2) (Homo sapiens, UniProt Q9NYY3); assay: PLK2 NanoBRET target engagement assay (NLuc-PLK2) in live HEK293 cells; assay type: cell-based; settings: HEK293, probe 11 1.0 µM, 2 h; average of two technical replicates ±15%
T1 construct: ORFs corresponding to UniProt isoform 1 (PLK1: P53350-1, PLK2: Q9NYY3-1, and PLK3: Q9H4B4-1); host or cells: HEK293
T1 sequence (Q9NYY3 whole entry, canonical isoform): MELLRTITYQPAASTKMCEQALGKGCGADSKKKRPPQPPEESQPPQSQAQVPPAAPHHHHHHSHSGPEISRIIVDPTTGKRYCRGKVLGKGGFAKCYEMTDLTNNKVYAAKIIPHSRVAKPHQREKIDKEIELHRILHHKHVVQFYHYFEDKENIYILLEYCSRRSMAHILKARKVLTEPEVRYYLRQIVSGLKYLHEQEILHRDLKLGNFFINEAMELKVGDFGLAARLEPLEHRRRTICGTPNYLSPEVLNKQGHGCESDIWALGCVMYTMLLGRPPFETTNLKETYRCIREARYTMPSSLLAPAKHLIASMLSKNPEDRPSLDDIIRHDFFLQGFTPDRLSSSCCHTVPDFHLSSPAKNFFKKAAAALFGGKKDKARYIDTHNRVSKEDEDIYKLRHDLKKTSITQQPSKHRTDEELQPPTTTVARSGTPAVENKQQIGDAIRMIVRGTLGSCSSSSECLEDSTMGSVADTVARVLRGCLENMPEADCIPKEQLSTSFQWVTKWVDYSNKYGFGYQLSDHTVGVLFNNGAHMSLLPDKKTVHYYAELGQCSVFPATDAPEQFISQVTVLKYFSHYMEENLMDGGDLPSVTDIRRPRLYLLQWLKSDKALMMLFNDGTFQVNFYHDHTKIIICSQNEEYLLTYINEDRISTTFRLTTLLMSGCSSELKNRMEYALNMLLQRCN
Protocol: (§1) HEK293 cells (ATCC) were cultured in DMEM (Gibco) + 10% FBS (Seradigm) with incubation in a humidified 37 °C/5% CO2 incubator. N- or C-terminal NLuc/PLK fusions were encoded in pFN31K expression vectors (Promega), including flexible Gly-Ser-Ser-Gly linkers between NLuc and ORFs corresponding to UniProt isoform 1 (PLK1: P53350-1, PLK2: Q9NYY3-1, and PLK3: Q9H4B4-1). Carrier DNA was encoded in pGEM-3Z vectors (Promega). For cellular BRET target engagement experiments, HEK293 cells were transfected with NLuc/PLK fusion constructs using FuGENE HD (Promega) according to the manufacturer’s protocol. Briefly, NLuc/PLK fusion constructs were diluted into Transfection Carrier DNA (Promega) at a mass ratio of 1:9 (mass/mass), after which FuGENE HD was added at a ratio of 1:3 (µg DNA: µL FuGENE HD). One part (vol) of FuGENE HD complexes thus formed was combined with 20 parts (vol) of HEK293 cells suspended at a density of 2 × 10^5 per mL, followed by incubation in a humidified 37 °C/5% CO2 incubator for 20 hr.
(§2) To test BRET probes 10 and 11 against PLK1, HEK293 adherent cells were incubated with either NLuc fused to the N-terminus of PLK1 (NLuc-PLK1) or the C-terminus of PLK1 (PLK1-NLuc) using 1 µM of the BRET probe, and mBRET units were measured. […] NLuc-PLK2 and NLuc-PLK3 were tested with both probes 10 and 11 using the same protocol.

human PLK3 (NLuc-PLK3) = biological target: T2, human PLK3 (NLuc-PLK3) (Homo sapiens, UniProt Q9H4B4); assay: PLK3 NanoBRET target engagement assay (NLuc-PLK3) in live HEK293 cells; assay type: cell-based; settings: HEK293, probe 11 1.0 µM, 2 h; average of two technical replicates ±15%
T2 construct: ORFs corresponding to UniProt isoform 1 (PLK1: P53350-1, PLK2: Q9NYY3-1, and PLK3: Q9H4B4-1); host or cells: HEK293
T2 sequence (Q9H4B4 whole entry, canonical isoform): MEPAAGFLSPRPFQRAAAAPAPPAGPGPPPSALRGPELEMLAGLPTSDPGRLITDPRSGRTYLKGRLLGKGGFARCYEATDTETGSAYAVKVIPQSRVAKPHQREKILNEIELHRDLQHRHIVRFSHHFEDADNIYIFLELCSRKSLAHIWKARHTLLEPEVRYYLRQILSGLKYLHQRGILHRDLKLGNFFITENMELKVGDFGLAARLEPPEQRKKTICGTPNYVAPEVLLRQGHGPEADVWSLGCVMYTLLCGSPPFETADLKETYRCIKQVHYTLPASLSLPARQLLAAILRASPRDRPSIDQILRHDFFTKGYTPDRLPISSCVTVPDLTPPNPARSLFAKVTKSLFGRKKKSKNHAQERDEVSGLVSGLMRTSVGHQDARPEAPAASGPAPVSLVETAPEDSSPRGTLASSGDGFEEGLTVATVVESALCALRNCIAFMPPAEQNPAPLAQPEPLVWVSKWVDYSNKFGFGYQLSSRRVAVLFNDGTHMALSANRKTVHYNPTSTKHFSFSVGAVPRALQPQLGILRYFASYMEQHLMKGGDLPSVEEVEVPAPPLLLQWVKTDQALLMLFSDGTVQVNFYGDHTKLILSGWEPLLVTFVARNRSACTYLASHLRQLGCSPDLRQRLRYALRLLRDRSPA
Protocol: as §1, §2

human PLK1 (NLuc-PLK1) = biological target: T3, human PLK1 (NLuc-PLK1) (Homo sapiens, UniProt P53350); assay: PLK1 NanoBRET target engagement assay (NLuc-PLK1, N-terminal fusion) in live HEK293 cells; assay type: cell-based
T3 construct: plasmid DNAs encoding N- and C-terminal fusions of full-length PLK1 with NLuc; host or cells: HEK293
T3 sequence (P53350 whole entry, the tested form may be a part): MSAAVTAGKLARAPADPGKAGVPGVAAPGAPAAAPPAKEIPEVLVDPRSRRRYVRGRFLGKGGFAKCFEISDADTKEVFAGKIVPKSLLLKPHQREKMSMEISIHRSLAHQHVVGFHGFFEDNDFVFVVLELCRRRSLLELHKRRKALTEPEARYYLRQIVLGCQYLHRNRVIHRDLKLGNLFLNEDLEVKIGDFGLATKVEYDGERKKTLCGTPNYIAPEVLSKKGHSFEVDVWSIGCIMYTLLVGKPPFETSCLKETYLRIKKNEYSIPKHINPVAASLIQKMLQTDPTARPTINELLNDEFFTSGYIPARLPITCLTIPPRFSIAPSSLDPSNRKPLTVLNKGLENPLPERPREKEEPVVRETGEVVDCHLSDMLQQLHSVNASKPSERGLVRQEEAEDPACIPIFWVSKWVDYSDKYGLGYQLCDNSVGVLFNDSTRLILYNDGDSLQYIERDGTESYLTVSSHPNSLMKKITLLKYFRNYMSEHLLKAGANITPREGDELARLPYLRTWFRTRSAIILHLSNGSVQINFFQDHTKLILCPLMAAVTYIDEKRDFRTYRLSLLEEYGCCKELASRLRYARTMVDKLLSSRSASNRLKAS
Protocol: as §1, with “Briefly, NLuc/PLK fusion constructs were diluted into Transfection Carrier DNA (Promega) at a mass ratio of 1:9 (mass/mass), after which FuGENE HD was added at a ratio of 1:3 (µg DNA: µL FuGENE HD).” left out
as §2
To estimate the half-maximal effective concentration (EC50) of probe 11 to PLK1 in cells, adherent HEK293 cells in a 96-well plate expressing the NLuc-PLK1 fusion protein were mixed with an increasing concentration of BRET probe 11. The resulting BRET ratio was fitted to the sigmoidal 4-parameter dose–response curve using Prism 9.0 (GraphPad, Boston MA, USA).

PLK1 (PLK1-NLuc) = biological target: T4, PLK1 (PLK1-NLuc) (Homo sapiens, UniProt P53350); assay: BRET probe evaluation with NLuc fused to the C-terminus of PLK1 (PLK1-NLuc) in HEK293 cells; assay type: cell-based; settings: 1 µM probe, PLK1-NLuc (C-terminal fusion), adherent HEK293 cells
T4 construct: plasmid DNAs encoding N- and C-terminal fusions of full-length PLK1 with NLuc; host or cells: HEK293
T4 sequence (P53350 whole entry, the tested form may be a part): as above
Protocol: as §1
To test BRET probes 10 and 11 against PLK1, HEK293 adherent cells were incubated with either NLuc fused to the N-terminus of PLK1 (NLuc-PLK1) or the C-terminus of PLK1 (PLK1-NLuc) using 1 µM of the BRET probe, and mBRET units were measured. The combination with the highest mBRET units was selected for further processing. […]

SMILES | IC50 (human PLK2 (NLuc-PLK2)) | IC50 (human PLK3 (NLuc-PLK3)) | IC50 [1] | IC50 (PLK1) | other results
C[C@@H](Oc1cc(-n2cnc3ccc(CN4CCN(C)CC4)cc32)sc1C(N)=O)c1ccccc1C(F)(F)F [GSK461364] |  |  | 10 to 100 nM |  | 
Cc1ncc(CCCN(C)C)cc1Nc1ncc2c(n1)-c1ccc(C(F)(F)F)cc1NC(=S)C2 [MLN0905] |  |  |  | 2 nM | 
CN1CCN(c2ccc(OC(F)(F)F)c(Nc3ncc4c(n3)-c3c(c(C(N)=O)nn3CCO)CC4)c2)CC1 [Onvansertib] |  |  | 42 nM | […] | 
CC[C@@H]1C(=O)N(C)c2cnc(Nc3ccc(C(=O)NC4CCNCC4)cc3OC)nc2N1C(C)C [compound 1, (R)-4-((7-ethyl-8-isopropyl-5-methyl-6-oxo-5,6,7,8-tetrahydropteridin-2-yl)amino)-3-methoxy-N-(piperidin-4-yl)benzamide] |  |  |  |  | IC50 (human PLK1 (NLuc-PLK1); Probe 11 Conc. 0.1 μM, NLuc-PLK1, ADH format, read-out: apparent IC50): 203 nM; IC50 (human PLK1 (NLuc-PLK1); Probe 11 Conc. 0.2 μM, NLuc-PLK1, ADH format, read-out: apparent IC50): 228 nM; IC50 (human PLK1 (NLuc-PLK1); Probe 11 Conc. 0.4 μM, NLuc-PLK1, ADH format, read-out: apparent IC50): 246 nM; IC50 (human PLK1 (NLuc-PLK1); Probe 11 Conc. 0.6 μM, NLuc-PLK1, ADH format, read-out: apparent IC50): 285 nM; IC50 (human PLK1 (NLuc-PLK1); Probe 11 Conc. 0.8 μM, NLuc-PLK1, ADH format, read-out: apparent IC50): 291 nM; IC50 (human PLK1 (NLuc-PLK1); Probe 11 Conc. 1 μM, NLuc-PLK1, ADH format, read-out: apparent IC50): 316 nM; Kd (human PLK1 (NLuc-PLK1); linearized Cheng–Prusoff analysis, y-intercept of IC50 vs probe 11 concentration, live HEK293 cells, read-out: apparent KD for intracellular target engagement of PLK1): 120 nM
CC[C@@H]1C(=O)N(C)c2cnc(Nc3ccc(C(=O)NC4CCN(C(=O)CCc5ccc6n5[B-](F)(F)[N+]5=C(c7ccc[nH]7)C=CC5=C6)CC4)cc3OC)nc2N1C(C)C [probe 10, (R)-N-(1-(3-(5,5-difluoro-7-(1H-pyrrol-2-yl)-5H-5^λ,6^λ-dipyrrolo[1,2-c:2’,1’-f][1-3]diazaborinin-3-yl)propanoyl)piperidin-4-yl)-4-((7-ethyl-8-isopropyl-5-methyl-6-oxo-5,6,7,8-tetrahydropteridin-2-yl)amino)-3-methoxybenzamide] |  |  |  |  | BRET ratio (human PLK1 (NLuc-PLK1); 1 µM probe, NLuc-PLK1, adherent HEK293 cells): ~ 39; BRET ratio (PLK1 (PLK1-NLuc)): ~ 15

Second part, led by results:

IC50 (human PLK2 (NLuc-PLK2)) | IC50 (human PLK3 (NLuc-PLK3)) | SMILES | IC50 [1] | IC50 (PLK1) | other results
45 nM | 180 nM | COc1cc(C(=O)NC2CCN(C)CC2)ccc1Nc1ncc2c(n1)N(C1CCCC1)CC(F)(F)C(=O)N2C [Ro3280] | 6 to 45 nM |  | 
64 nM | 1700 nM | CCC1(F)CN(C2CCCC2)c2nc(Nc3ccc(C(=O)NC4CCN(C)CC4)cc3OC)ncc2N(C)C1=O (stereo not drawn) [TPKI-26] | 5 nM |  | 
23 nM | 59 nM | CC[C@@H]1C(=O)N(C)c2cnc(Nc3ccc(C(=O)N[C@H]4CC[C@H](N5CCN(CC6CC6)CC5)CC4)cc3OC)nc2N1C(C)C [Volasertib] | 11 to 37 nM | 0.87 nM | IC50 (human PLK1 (NLuc-PLK1); HEK293, probe 11 0.2 µM, 2 h, average of two technical replicates ±15%, read-out: NanoBRET Target Engagement IC50 PLK1): 18 nM
